According to publication PMC6934184, “Selective DNA-PKcs inhibition extends the therapeutic index of localized radiotherapy and chemotherapy” (The Journal of Clinical Investigation, 2019):

Target: T1, EGFR (ErbB1) T790M (Homo sapiens, UniProt P00533, T790M)
T1 construct: purchased Thermo Fisher Scientific (Life Technologies) SelectScreen
Test: SelectScreen Z'LYTE
Format: biochemical
Method in brief: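 SelectScreen broad panel; activity (Z'LYTE, Adapta) plus binding formats. ATP: Km app for CSF1R Z'LYTE; 10 for CAMK1 Adapta. Readout = % per kinase.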

T1 sequence (P00533 25-1210 T790M): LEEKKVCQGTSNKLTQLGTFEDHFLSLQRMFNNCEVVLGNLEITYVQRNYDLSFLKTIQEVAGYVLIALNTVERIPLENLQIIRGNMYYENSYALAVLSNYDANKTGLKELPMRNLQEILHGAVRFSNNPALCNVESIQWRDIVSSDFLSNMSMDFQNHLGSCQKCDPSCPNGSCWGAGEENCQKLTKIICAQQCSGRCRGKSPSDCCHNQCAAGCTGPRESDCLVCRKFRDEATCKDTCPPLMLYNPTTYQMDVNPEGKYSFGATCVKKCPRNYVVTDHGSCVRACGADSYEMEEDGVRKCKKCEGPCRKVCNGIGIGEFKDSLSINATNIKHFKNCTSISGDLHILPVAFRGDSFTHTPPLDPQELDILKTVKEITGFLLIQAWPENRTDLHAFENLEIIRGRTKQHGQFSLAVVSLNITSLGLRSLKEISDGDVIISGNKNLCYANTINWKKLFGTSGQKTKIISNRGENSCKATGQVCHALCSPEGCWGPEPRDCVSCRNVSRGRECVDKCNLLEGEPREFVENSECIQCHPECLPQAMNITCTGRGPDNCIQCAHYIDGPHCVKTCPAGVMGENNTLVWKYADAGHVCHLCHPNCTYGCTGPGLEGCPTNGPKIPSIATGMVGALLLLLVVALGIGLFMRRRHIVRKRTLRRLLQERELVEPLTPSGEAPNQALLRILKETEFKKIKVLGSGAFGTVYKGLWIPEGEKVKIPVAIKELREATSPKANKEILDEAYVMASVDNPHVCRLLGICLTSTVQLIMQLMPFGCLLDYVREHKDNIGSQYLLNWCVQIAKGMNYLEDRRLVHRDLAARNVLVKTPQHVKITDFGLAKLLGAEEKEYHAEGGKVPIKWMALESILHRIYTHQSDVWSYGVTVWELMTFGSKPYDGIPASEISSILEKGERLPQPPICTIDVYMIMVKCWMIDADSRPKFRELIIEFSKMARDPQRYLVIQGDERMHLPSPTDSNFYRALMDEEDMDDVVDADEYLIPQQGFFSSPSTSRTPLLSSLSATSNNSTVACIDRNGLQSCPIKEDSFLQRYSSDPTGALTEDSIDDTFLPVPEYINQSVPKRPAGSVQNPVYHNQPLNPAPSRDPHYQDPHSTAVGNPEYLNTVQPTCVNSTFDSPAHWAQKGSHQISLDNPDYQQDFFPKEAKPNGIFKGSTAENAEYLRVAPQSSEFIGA

`CN(C(=O)CN1CCOCC1)c1ccc2sc3c(-c4cccc5c(=O)cc(N6CC7CCC(C6)O7)oc45)cccc3c2c1` [NU5455] was tested, and the inhibition at 1 µM was -3.3%.
